Patent US9822139B2, “Pharmaceutical composition containing cyclometalated N-heterocyclic carbene complexes for cancer treatment” (THE UNIVERSITY OF HONG KONG, priority 2009, dated 2017)
pIC50: −log10 of the molar value.

How the values were obtained:
[1] = tested on: camptothecin-resistant cell line KB100; assay: MTT cytotoxicity assay, KB100; assay type: cell-based, human; settings: 72 h
Protocol: (§1) Example 2 describes the in vitro cytotoxicity, which is indicative of the induction of cell death and/or inhibition of cellular proliferation of cancer cells, of the cyclometalated N-heterocyclic complexes on cervical epithelioid carcinoma, hepatocellular carcinoma, leukemia, nasopharyngeal carcinoma, breast carcinoma, melanoma, and lung carcinoma.
(§2) By means of MTT assays, the cytotoxic properties of cyclometalated N-heterocyclic carbene complexes (1-25) were determined toward some established human cancer cell lines including hepatocellular carcinoma (HepG2), cervical epithelioid carcinoma (HeLa), epithelial carcinoma (KB and its camptothecin-resistant cell line KB100), non-small cell lung carcinoma (NCI-H460), leukemia (HL-60), breast carcinoma (MDA-MB-231), melanoma (B16) and nasopharyngeal carcinoma (SUNE1). […] In terms of the IC50 values, they display similar cytotoxic properties compared to the reference complexes cisplatin and camptothecin (CPT).

[2] = tested on: SUNE1 cells; assay: Apoptosis induction by flow cytometry (AV-FITC / PI); assay type: cell-based; settings: 72 h
Protocol: Since cancer is characterized by uncontrolled cellular proliferation, there is a considerable interest in chemotherapeutic-induced apoptosis [J. C. Reed, Nature Rev. Drug Discov. 2002, 1, 111; D. W. Nicholson, Nature 2000, 407, 810]. Using fluorescein-labeled annexin V (AV-FITC) and propidium iodide (PI), the apoptosis-inducing properties of complex 1 in SUNE1 cells were examined by flow cytometry. […] The apoptosis-inducing properties of complex 1 at a lower dose (12 μM for 72 h) were also examined. […] According to the propagation profiles (formazan absorbance A550nm vs incubation time) of the treated SUNE1 cells, there is a trend of cellular growth inhibition in the presence of complex 1 at 12 μM level. Taken together with the flow cytometric results, complex 1 appears to inhibit cancer cell proliferation at 12 μM and induce apoptosis at higher doses (i.e. 60 μM).
The apoptosis-inducing properties of complex 14 in SUNE1 cells were also examined by flow cytometry. […] The apoptosis-inducing properties of complex 14 at a lower dose (1 μM for 72 h) were also examined. […] Thus, complex 14 could induce apoptosis at 10 μM.

[3] = tested on: non-small cell lung carcinoma (NCI-H460); assay: MTT cytotoxicity assay, NCI-H460; assay type: cell-based, human; settings: 72 h
Protocol: as §1, §2

[4] = biological target: T1, TopoI (Homo sapiens, UniProt P11387); assay: Band depletion assay for TopoI cleavable complexes; assay type: cell-based; settings: KB cells
T1 construct: endogenous in cells; host or cells: KB cells
T1 sequence (P11387 1-765): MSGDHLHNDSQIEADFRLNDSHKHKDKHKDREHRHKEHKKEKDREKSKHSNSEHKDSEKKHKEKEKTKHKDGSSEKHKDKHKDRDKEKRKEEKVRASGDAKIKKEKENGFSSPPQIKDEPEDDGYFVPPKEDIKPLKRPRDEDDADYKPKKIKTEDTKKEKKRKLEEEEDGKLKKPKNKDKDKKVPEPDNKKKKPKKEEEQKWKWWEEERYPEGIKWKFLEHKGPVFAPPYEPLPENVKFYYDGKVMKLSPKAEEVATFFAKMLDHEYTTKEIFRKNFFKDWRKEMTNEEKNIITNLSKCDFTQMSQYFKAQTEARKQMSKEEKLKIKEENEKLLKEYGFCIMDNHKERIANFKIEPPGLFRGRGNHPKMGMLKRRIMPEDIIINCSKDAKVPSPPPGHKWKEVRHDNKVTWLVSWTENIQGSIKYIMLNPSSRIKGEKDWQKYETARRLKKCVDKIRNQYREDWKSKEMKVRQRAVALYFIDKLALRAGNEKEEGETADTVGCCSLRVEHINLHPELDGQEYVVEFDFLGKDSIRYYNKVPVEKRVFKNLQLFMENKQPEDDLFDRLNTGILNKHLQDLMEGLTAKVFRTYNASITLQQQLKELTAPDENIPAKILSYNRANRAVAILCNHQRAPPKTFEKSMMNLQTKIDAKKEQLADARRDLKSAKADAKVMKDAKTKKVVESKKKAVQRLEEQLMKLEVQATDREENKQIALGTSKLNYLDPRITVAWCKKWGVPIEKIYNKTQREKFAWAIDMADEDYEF
From the text: In this assay, while TopoI-DNA cleavable complexes are trapped by alkaline lysis, free TopoI is detected as an immunoreactive band.

[5] = biological target: T2, topoisomerase I (TopoI) (Homo sapiens, UniProt P11387); assay: TopoI-mediated relaxation of supercoiled DNA; assay type: biochemical
T2 sequence (P11387 1-765): T1 sequence (P11387 1-765)
From the text: DNA strand breaks were also detected in complex 1-treated KB cells by alkaline comet assay. […] Topoisomerases have become one of the important cellular targets for anti-cancer treatment. It is believed that topoisomerase inhibitors prevent the ligation step of the cell cycle, generate DNA strand breaks, and subsequently induce apoptosis in cells. […] The assay was repeated on ethidium bromide containing gel (FIG. 4, lower).

[6] = tested on: epithelial carcinoma (KB); assay: MTT cytotoxicity assay, KB; assay type: cell-based, human; settings: 72 h
Protocol: as §1, §2

[7] = tested on: breast carcinoma (MDA-MB-231); assay: MTT cytotoxicity assay, MDA-MB-231; assay type: cell-based, human; settings: 72 h, MBA-MD-231
Protocol: as §1, §2

[8] = tested on: lung fibroblast cells (CCD-19Lu); assay: MTT cytotoxicity to non-cancerous cells, CCD-19Lu; assay type: cell-based, human; settings: 72 h, non-cancerous lung fibroblast cells CCD-19Lu
Protocol: as §2
Using lung fibroblast cells (CCD-19Lu), the cytotoxicity of the complexes to non-cancerous cells was also examined.

[9] = tested on: leukemia (HL-60); assay: MTT cytotoxicity assay, HL-60; assay type: cell-based, human; settings: 72 h
Protocol: as §1, §2

[10] = tested on: melanoma (B16); assay: MTT cytotoxicity assay, B16; assay type: cell-based, mouse; settings: 72 h
Protocol: as §1, §2

[11] = tested on: KB cells; assay: Alkaline comet assay for DNA strand breaks; assay type: cell-based; settings: for strand breaks on chromosomal DNA (comet assay): 3 h, KB cells; for reversal of DNA cleavage events upon second incubation: second incubation at 55° C. for 10 min
[12] = tested on: PLC tumor (hepatocellular carcinoma); assay: In vivo anti-cancer study, nude mice bearing PLC tumor; settings: 3 mg/kg/week for 28 days
From the text: Prompted by the prominent in vitro cytotoxicity and the potential cancer-cell selectivity, the in vivo anti-cancer property of complex 1 was preliminarily examined by using nude mice models with the approval from the Committee on the Use of Live Animals for Teaching and Research (The University of Hong Kong).

[13] = tested on: cervical epithelioid carcinoma (HeLa); assay: MTT cytotoxicity assay, HeLa; assay type: cell-based, human; settings: 72 h
Protocol: as §1, §2

[14] = tested on: established human cancer cell lines; assay: MTT cytotoxicity, panel of cancer cell lines (summary statements); assay type: cell-based; settings: in terms of IC50, versus cisplatin
Protocol: as §2

[15] = tested on: hepatocellular carcinoma (HepG2); assay: MTT cytotoxicity assay, HepG2; assay type: cell-based, human; settings: 72 h
Protocol: as §1, §2

Structure (SMILES): Cn1cc[n+](C)[c]1[Au-]12[c]3ccccc3-c3cccc([n+]31)-c1cccc[c]12.O=S(=O)([O-])C(F)(F)F [Complex 1]
- pIC50 [1]: 5.92
- viable cells unstained by both AV-FITC and PI ([2]; 12 μM): ~90%
- SUNE1 cells in early apoptotic state ([2]; 60 μM): 30.9%
- pIC50 [3]: 6.77
- band intensity of the TopoI band ([4]; 10 and 100 nM): reduced the band intensity of the TopoI band
- inhibition of TopoI-mediated DNA relaxation ([5]; 10 μM): completely inhibited
- inhibition of TopoI-mediated DNA relaxation ([5]; dose response, compared with CPT): dose-dependently inhibits DNA relaxation at significant lower concentrations than CPT
- nicked DNA (stimulation of DNA cleavage by TopoI) ([5]; ethidium bromide containing gel): presence of nicked DNA was observed
- pIC50 [6]: 6.25
- pIC50 [7]: 6.21
- pIC50 [8]: 4.60
- pIC50 [9]: 6.32
- pIC50 [10]: 6.48
- strand breaks on chromosomal DNA (comet assay) ([11]; 0.5 μM): induced extensive strand breaks on chromosomal DNA
- reversal of DNA cleavage events upon second incubation [11]: partially reversed
- toxic side-effect including death and weight loss ([12]; nude mice): no apparent 1-induced toxic side-effect including death and weight loss was observed
- suppression of tumor growth compared to vehicle control ([12]; nude mice bearing PLC tumor): 47%
- pIC50 [13]: 6.82
- fold higher cytotoxic activity than cisplatin [14]: 18 to 28 fold
- pIC50 [15]: 6.43

Structure (SMILES): CC[C@@]1(O)C(=O)OCc2c1cc1n(c2=O)Cc2cc3ccccc3nc2-1 [CPT, camptothecin]
- band intensity of the TopoI band ([4]; 1 μM): reduced the band intensity of the TopoI band
- strand breaks on chromosomal DNA (comet assay) ([11]; 1 μM): induced extensive strand breaks on chromosomal DNA
- reversal of DNA cleavage events upon second incubation [11]: partially reversed
